Test results taken from US9416128B2, “Fused heterocyclic compounds as ion channel modulators” (Gilead Sciences, Inc., priority 2013, dated 2016).
Read-outs that look alike come from different tables or passages of the source.

Legend:
[1] = biological target: wild-type human cardiac sodium channel, hNaV 1.5 (Peak INa) (Homo sapiens, UniProt Q14524); experiment: Peak INa screening assay (tonic block and use-dependent block); format: cell-based
Experimental: The assay uses an HEK293 (human embryonic kidney) cell line heterologously expressing the wild-type human cardiac sodium channel, hNaV 1.5, purchased from Millipore (Billerica, Mass.). No beta subunits were coexpressed with the Na channel alpha subunit. Cells are maintained with standard tissue culture procedures and stable channel expression is maintained with 400 μg/mL Geneticin in the culture medium. […] Currents are digitized at 25 kHz and low-pass filtered at 5 kHz and stored in the Sophion Bioscience Oracle database (Sophion Bioscience, Copenhagen, Denmark). Analysis is performed using QPatch Assay software and data are compiled in Excel 2010 (Microsoft, Seattle, Wash., U.S.A.). Compound stocks are routinely made by the Gilead Sample Bank in vials to 10 mM in dimethyl sulfoxide (DMSO). In some cases, when compounds are not soluble in DMSO, they are made in 100% ethanol. Stocks are sonicated as necessary. The extracellular solution for screening Late INa is composed of: 140 mM NaCl, 4 mM KCl, 1.8 mM CaCl2, 1 mM MgCl2, 10 mM HEPES and 10 mM Dextrose with pH adjusted to 7.35 using NaOH. The intracellular solution contains: 105 mM CsF, 20 mM CsCl, 10 NaF, 2 mM EGTA, 10 mM HEPES and 10 mM Dextrose with pH adjusted to 7.35 with CsOH. Compounds are diluted in extracellular solution using a MicroLab Nimbus (Hamilton Robotics, Reno, Nev.) to between 0.3 and 3 μM in glass vials and transferred to glass well plates before robotic addition to the cells. […] It is contemplated that the compounds of Formula I avoid significant block of peak INa. […] The intracellular solution used for the Peak INa assay is the same as outlined for the Late INa assay (see above). After establishing the whole cell recording configuration, channels were stimulated to open with low frequency (0.1 Hz) for so that the recording can be monitored and the extent to which the recording has stabilized can be assessed. The test compound is then applied at 1 or 3 μM was added 2 times at 60 second intervals. After the second compound addition, a 200 second wait period was imposed to allow for equilibration. Voltage protocols for TB and UDB are were performed in the absence and presence of compound and TB and UDB are calculated with respect to the compound free condition. Both TB and UDB were analyzed by incorporating rundown correction for the peak INa.

[2] = biological target: wild-type human cardiac sodium channel, hNaV 1.5 (Late INa) (Homo sapiens, UniProt Q14524); experiment: Late INa screening assay (whole cell patch clamp, QPatch, Tefluthrin-induced late current); format: cell-based; details: HEK293, % inhibition (percent block of late INa) at 1 uM; HEK293 hNaV1.5; 10 μM Tefluthrin; read-out: Nav1.5 Late INa 1 uM
In short: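 HEK293 cells stably expressing hNaV1.5 without beta subunits, whole-cell patch clamp at 23-25° C; late current induced by 10 μM Tefluthrin, measured 240-265 ms into 250 ms steps to −20 mV from −120 mV at 0.1 Hz. Compounds typically 0.3 or 1 μM, three additions over 5 min; percent block normalized to 0Na baseline with rundown correction.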

[3] = % inhibition, use-dependent block of peak INa at 3 uM, 3 Hz, pulse 50, read-out: Nav1.5 Peak UDB 3 Hz 3 uM
[4] = read-out: Nav1.5 Peak TB 3 uM, % inhibition, tonic block of peak INa at 3 uM, 0.1 Hz, holding -100 mV

Sequence of wild-type human cardiac sodium channel, hNaV 1.5 (Late INa) (Q14524 whole entry): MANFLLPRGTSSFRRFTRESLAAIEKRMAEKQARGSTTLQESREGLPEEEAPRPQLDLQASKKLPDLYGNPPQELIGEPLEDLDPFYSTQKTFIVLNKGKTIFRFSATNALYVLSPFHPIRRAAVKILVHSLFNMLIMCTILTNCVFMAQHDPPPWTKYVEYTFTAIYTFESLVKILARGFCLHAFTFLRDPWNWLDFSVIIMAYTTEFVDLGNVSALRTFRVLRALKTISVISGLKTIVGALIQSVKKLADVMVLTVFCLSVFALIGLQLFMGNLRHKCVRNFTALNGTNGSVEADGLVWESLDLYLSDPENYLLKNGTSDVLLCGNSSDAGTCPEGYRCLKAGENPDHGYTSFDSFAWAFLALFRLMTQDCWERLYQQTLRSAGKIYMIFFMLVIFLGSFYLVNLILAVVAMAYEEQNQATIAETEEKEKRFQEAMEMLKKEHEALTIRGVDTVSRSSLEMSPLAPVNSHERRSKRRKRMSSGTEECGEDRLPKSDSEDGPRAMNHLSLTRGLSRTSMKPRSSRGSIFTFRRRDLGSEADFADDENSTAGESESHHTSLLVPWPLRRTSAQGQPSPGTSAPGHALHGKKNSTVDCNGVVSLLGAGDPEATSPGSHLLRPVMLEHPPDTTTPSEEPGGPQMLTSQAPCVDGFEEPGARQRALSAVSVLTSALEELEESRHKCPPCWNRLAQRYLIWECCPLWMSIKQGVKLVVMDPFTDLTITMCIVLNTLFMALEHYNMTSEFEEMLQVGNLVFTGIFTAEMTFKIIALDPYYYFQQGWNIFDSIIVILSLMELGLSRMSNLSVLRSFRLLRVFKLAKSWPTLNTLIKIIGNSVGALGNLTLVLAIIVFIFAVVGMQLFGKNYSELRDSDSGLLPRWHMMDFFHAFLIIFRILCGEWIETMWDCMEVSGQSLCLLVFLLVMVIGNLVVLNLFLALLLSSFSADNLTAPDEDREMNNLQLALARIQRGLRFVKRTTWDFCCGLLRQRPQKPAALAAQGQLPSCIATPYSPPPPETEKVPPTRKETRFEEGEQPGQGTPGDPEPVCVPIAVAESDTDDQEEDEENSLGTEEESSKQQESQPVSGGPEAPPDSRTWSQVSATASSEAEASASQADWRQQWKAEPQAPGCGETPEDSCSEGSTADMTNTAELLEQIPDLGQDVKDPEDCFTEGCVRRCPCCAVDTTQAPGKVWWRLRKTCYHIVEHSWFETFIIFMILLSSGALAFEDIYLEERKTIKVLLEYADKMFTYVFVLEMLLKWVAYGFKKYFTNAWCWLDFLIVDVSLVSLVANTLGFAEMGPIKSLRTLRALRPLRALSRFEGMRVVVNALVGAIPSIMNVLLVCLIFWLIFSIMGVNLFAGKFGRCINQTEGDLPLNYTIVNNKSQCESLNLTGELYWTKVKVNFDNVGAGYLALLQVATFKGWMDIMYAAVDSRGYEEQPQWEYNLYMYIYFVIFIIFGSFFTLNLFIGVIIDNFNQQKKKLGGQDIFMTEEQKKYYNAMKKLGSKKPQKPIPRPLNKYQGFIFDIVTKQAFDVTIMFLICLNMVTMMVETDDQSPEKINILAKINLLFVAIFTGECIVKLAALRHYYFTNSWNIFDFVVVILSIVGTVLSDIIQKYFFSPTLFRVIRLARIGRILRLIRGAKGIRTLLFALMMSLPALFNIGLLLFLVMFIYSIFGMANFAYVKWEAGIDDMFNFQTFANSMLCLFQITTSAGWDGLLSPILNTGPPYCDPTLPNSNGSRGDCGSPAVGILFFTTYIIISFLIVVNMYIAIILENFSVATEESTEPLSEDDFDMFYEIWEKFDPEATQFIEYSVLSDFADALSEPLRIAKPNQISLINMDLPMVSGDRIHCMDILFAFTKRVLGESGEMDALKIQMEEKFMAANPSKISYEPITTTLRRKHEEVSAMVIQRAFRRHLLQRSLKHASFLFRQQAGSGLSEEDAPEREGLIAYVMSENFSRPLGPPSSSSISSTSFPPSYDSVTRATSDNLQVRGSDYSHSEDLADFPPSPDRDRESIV
Sequence of wild-type human cardiac sodium channel, hNaV 1.5 (Peak INa) (Q14524 whole entry): as above

SMILES	inhibition at 3 µM [1, 3] [%]	inhibition at 3 µM [1, 4] [%]	inhibition at 1 µM [2] [%]
Cc1ccnc(CN2Cc3cc(-c4ccc(OC(F)(F)F)cc4F)ccc3OC2=O)n1 [Example 32, 6-(2-fluoro-4-(trifluoromethoxy)phenyl)-3-((4-methylpyrimidin-2-yl)methyl)-3,4-dihydro-2H-benzo[e][1,3]oxazin-2-one]	< 5	33.1	43.4
Cc1cnc(CN2Cc3cc(-c4ccc(C(F)(F)F)cc4F)ccc3OC2=O)nc1 [Example 41, 6-(2-fluoro-4-(trifluoromethyl)phenyl)-3-((5-methylpyrimidin-2-yl)methyl)-3,4-dihydro-2H-benzo[e][1,3]oxazin-2-one]	< 5	17.5	45.7
CCOc1cc(C(F)(F)F)ccc1-c1ccc2c(c1)CN(Cc1ncccn1)C(=O)O2 [Example 35, 6-(2-ethoxy-4-(trifluoromethyl)phenyl)-3-(pyrimidin-2-ylmethyl)-3,4-dihydro-2H-benzo[e][1,3]oxazin-2-one]	9.7	20.2	49.4
O=C1Oc2ccc(-c3ccc(C(F)(F)F)cc3F)cc2CN1Cc1ncccn1 [Example 36, 6-(2-fluoro-4-(trifluoromethyl)phenyl)-3-(pyrimidin-2-ylmethyl)-3,4-dihydro-2H-benzo[e][1,3]oxazin-2-one]	5.9	11.5	43.6
COc1cc(OC(F)(F)F)ccc1-c1ccc2c(c1)CN(Cc1ccccn1)C(=O)O2 [Example 22, 6-(2-methoxy-4-(trifluoromethoxy)phenyl)-3-(pyridin-2-ylmethyl)-3,4-dihydro-2H-benzo[e][1,3]oxazin-2-one]	< 5	24.9	48.3
O=C1Oc2ccc(-c3ccc(OC(F)(F)F)cc3)cc2CN1CCc1ncccn1 [Example 16, 3-(2-(pyrimidin-2-yl)ethyl)-6-(4-(trifluoromethoxy)phenyl)-3,4-dihydro-2H-benzo[e][1,3]oxazin-2-one]	5.3	22.1	48.5
CCCOc1cc(C(F)(F)F)ccc1-c1ccc2c(c1)CN(CCc1ncccn1)C(=O)O2 [Example 19, 6-(2-propoxy-4-(trifluoromethyl)phenyl)-3-(2-(pyrimidin-2-yl)ethyl)-3,4-dihydro-2H-benzo[e][1,3]oxazin-2-one]	9.6	26.7	68
Cc1csc(CN2Cc3cc(-c4ccc(OC(F)(F)F)c(F)c4)ccc3OC2=O)n1 [Example 53, 6-(3-fluoro-4-(trifluoromethoxy)phenyl)-3-((4-methylthiazol-2-yl)methyl)-3,4-dihydro-2H-benzo[e][1,3]oxazin-2-one]	< 5	19.8	60.3
COc1cc(C(F)(F)F)ccc1-c1ccc2c(c1)CN(Cc1cccc(C)n1)C(=O)O2 [Example 44, 6-(2-methoxy-4-(trifluoromethyl)phenyl)-3-((6-methylpyridin-2-yl)methyl)-3,4-dihydro-2H-benzo[e][1,3]oxazin-2-one]	< 5	21.6	44.8
O=C1Oc2ccc(-c3ccc(Cl)c(F)c3)cc2CN1Cc1ncccn1 [Example 6, 6-(4-chloro-3-fluorophenyl)-3-(pyrimidin-2-ylmethyl)-3,4-dihydro-2H-benzo[e][1,3]oxazin-2-one]	< 5	19.9	43.3
CC1c2cc(-c3ccc(OC(F)(F)F)cc3)ccc2OC(=O)N1Cc1ncccn1 (stereo not shown) [Example 48, 4-methyl-3-(pyrimidin-2-ylmethyl)-6-(4-(trifluoromethoxy)phenyl)-3,4-dihydro-2H-benzo[e][1,3]oxazin-2-one]		12.1	53.2
CC(C)Oc1cc(OC(F)(F)F)ccc1-c1ccc2c(c1)CN(Cc1ncccn1)C(=O)O2 [Example 39, 6-(2-isopropoxy-4-(trifluoromethoxy)phenyl)-3-(pyrimidin-2-ylmethyl)-3,4-dihydro-2H-benzo[e][1,3]oxazin-2-one]	5.9	17.5	33.7
Cc1cc(C(F)(F)F)ccc1-c1ccc2c(c1)CN(Cc1ncccn1)C(=O)O2 [Example 37, 6-(2-methyl-4-(trifluoromethyl)phenyl)-3-(pyrimidin-2-ylmethyl)-3,4-dihydro-2H-benzo[e][1,3]oxazin-2-one]	< 5	14	41.1
CC1c2cc(-c3cccc(OC(F)(F)F)c3)ccc2OC(=O)N1Cc1ncccn1 (stereo not shown) [Example 50, 4-methyl-3-(pyrimidin-2-ylmethyl)-6-(3-(trifluoromethoxy)phenyl)-3,4-dihydro-2H-benzo[e][1,3]oxazin-2-one]	12.1	17.7	34.9
Cc1cc(OC(F)(F)F)ccc1-c1ccc2c(c1)CN(Cc1ncccn1)C(=O)O2 [Example 8, 6-(2-methyl-4-(trifluoromethoxy)phenyl)-3-(pyrimidin-2-ylmethyl)-3,4-dihydro-2H-benzo[e][1,3]oxazin-2-one]	< 5	12.5	52.7
CCCOc1cc(OC(F)(F)F)ccc1-c1ccc2c(c1)CN(Cc1ncccn1)C(=O)O2 [Example 28, 6-(2-propoxy-4-(trifluoromethoxy)phenyl)-3-(pyrimidin-2-ylmethyl)-3,4-dihydro-2H-benzo[e][1,3]oxazin-2-one]	6.9	12.9	45.4
Cc1cc(OC(F)(F)F)ccc1-c1ccc2c(c1)CN(Cc1ccccn1)C(=O)O2 [Example 23, 6-(2-methyl-4-(trifluoromethoxy)phenyl)-3-(pyridin-2-ylmethyl)-3,4-dihydro-2H-benzo[e][1,3]oxazin-2-one]	< 5	19.4	30.5
Cc1csc(CN2Cc3cc(-c4ccc(OC(F)(F)F)c(C)c4)ccc3OC2=O)n1 [Example 54, 6-(3-methyl-4-(trifluoromethoxy)phenyl)-3-((4-methylthiazol-2-yl)methyl)-3,4-dihydro-2H-benzo[e][1,3]oxazin-2-one]	< 5	11.2	31
O=C1Oc2ccc(-c3ccc(C(F)(F)F)cc3)cc2CN1CCc1ncccn1 [Example 17, 3-(2-(pyrimidin-2-yl)ethyl)-6-(4-(trifluoromethyl)phenyl)-3,4-dihydro-2H-benzo[e][1,3]oxazin-2-one]	< 5	12.9	45
Cc1csc(CN2Cc3cc(-c4ccc(Cl)c(Cl)c4)ccc3OC2=O)n1 [Example 56, 6-(3,4-dichlorophenyl)-3-((4-methylthiazol-2-yl)methyl)-3,4-dihydro-2H-benzo[e][1,3]oxazin-2-one]	< 5		39
Cc1ccnc(CN2Cc3cc(-c4ccc(OC(F)(F)F)cc4C)ccc3OC2=O)n1 [Example 33, 6-(2-methyl-4-(trifluoromethoxy)phenyl)-3-((4-methylpyrimidin-2-yl)methyl)-3,4-dihydro-2H-benzo[e][1,3]oxazin-2-one]	< 5	27.8	33
